What was measured:
[1] = Solubility determination (Method B), neutral water; format: physicochemical
Method: A quantity of the appropriate compound sufficient to saturate the resulting solution was added to distilled water (0.50 mL) and the mixture agitated on an orbital shaker for 2 h at room temperature (20° C.). The mixture was then centrifuged for 5 min. at 21,000×g and the supernatant was carefully removed by syringe and passed through a […] syringe filter. An aliquot (300 μL) of the filtered supernatant was concentrated in vacuo and the mass of the residual solids determined in order to calculate the solubility.

physchem = details: 25 °C, thermodynamic from solid
Method: Test compounds (4 mg) were added to 200 μL of one of the tested aqueous solutions (hereinafter—buffer): 100 mM aqueous HCl (pH 1) or 100 mM Na-phosphate buffer (pH 7). The obtained suspensions/solutions with the theoretical concentration of 20 mg/mL were further allowed to equilibrate at 25° C. on a thermostatic orbital shaker for 24 hours and then centrifuged at 6000 rpm for 4 minutes and filtered through HTS filter plates using a vacuum manifold. In parallel, compound dilutions in 50% acetonitrile/HCl and 30% acetonitrile/Na-phosphate buffer mixes were prepared to theoretical concentrations of 0 mg/mL (blank), 0.1 mg/mL, 0.2 mg/mL, and 0.4 mg/mL in duplicates to generate calibration curves falling within the optimum UV absorption range. The filtrates of test compounds were diluted 100-fold with acetonitrile-buffer mixtures before measuring. The filtered supernatant test samples were transferred to 96-well plates and measured for absorbance in the 200-550 nm range with 5 nm step increment. The concentrations of compounds in supernatants were calculated using the measured absorbance and the previously determined calibration curve. Proper absorbance wavelengths for calculations were selected for each compound manually based on absorbance maxima (absolute absorbance unit values for the minimum and maximum concentration points within 0-2.5 OD range).

male C57BL/6 mice = assay: Analgesic activity in hot plate assay; format: in vivo, mouse
Method: Male C57BL/6 mice were timed for latency to jump on a hot-plate apparatus set to 55° C., using a 30 s cutoff to prevent tissue damage. Following a baseline test, animals were injected subcutaneously (s.c.) with escalating doses of drug and tested at […] (time of maximal effect). Dose-response curves were fit via nonlinear regression using GraphPad Prism (La Jolla, CA).

[2] = target: T1, human mu opioid receptor (MOR) (Homo sapiens, UniProt P35372); assay: BRET assay measuring G protein activation, agonist activity at human MOR; format: cell-based
T1 construct: expressed in transfected cells; host or cells: HEK-293T
Method: The diarylthiazepinamine carboxylic acids (9) were tested for agonist activity at the human mu opioid receptor (MOR) and delta opioid receptor (DOR) using bioluminescence resonance energy transfer (BRET) assays measuring G protein activation as previously described (Table 1) (Rives, M.-L. et al. 2012; Negri, A. et al. 2013).
Human MOR cDNA was transfected alongside GααB with RLuc8 inserted at position 91 (GααB—RLuc8), Gβ1 (β1), and Gγ2 fused to the full-length mVenus at its N terminus (mVenus-γ2) into HEK-293T cells (5×10^6 cells/plate) in 10-cm dishes using PEI (Polysciences Inc.; Warrington, PA) in a 1:1 ratio diluted in Opti-MEM (Life Technologies Corp.; Grand Island, NY) to assay for G protein activation as described previously (Rives, M.-L. et al. 2012; Negri, A. et al. 2013). Cells were maintained in Dulbecco's Modified Eagle Medium (high glucose #11965; Life Technologies) supplemented with 10% FBS (Premium Select, Atlanta Biologicals; Atlanta, GA) and 100 U/mL penicillin and 100 μg/mL streptomycin (#15140, Life Technologies). After 24 hours the media was changed, and the experiment was performed 24 hours later (48 hours after transfection).
Transfected cells were dissociated and re-suspended in phosphate-buffered saline (PBS). Approximately 200,000 cells/well were added to a black-framed, white well 96-well plate (#60050; Perkin Elmer; Waltham, MA). The microplate was centrifuged and the cells were re-suspended in PBS. Then 5 μM of the luciferase substrate coelenterazine H was added to each well for 5 minutes. Following coelenterazine H addition, ligands were added and the BRET signal was measured at 5 minutes on a PHERAstar FS plate reader. Quantification of the BRET signal required calculating the ratio of the light emitted by the energy acceptor, mVenus (510-540 nm), over the light emitted by the energy donor, RLuc8 (485 nm). […] Dose response curves were fit using a three-parameter logistics equation in GraphPad Prism 6.
The additional diarylthiazepinamine carboxylic acids (9i, 9j, 9k, and 91) were tested for agonist activity at the human mu opioid receptor (MOR) using bioluminescence resonance energy transfer (BRET) assays measuring G protein activation (Table 2) as previously described (Rives, M.-L. et al. 2012; Negri, A. et al. 2013; Example 2 of the present application).

T1 sequence (P35372 whole entry): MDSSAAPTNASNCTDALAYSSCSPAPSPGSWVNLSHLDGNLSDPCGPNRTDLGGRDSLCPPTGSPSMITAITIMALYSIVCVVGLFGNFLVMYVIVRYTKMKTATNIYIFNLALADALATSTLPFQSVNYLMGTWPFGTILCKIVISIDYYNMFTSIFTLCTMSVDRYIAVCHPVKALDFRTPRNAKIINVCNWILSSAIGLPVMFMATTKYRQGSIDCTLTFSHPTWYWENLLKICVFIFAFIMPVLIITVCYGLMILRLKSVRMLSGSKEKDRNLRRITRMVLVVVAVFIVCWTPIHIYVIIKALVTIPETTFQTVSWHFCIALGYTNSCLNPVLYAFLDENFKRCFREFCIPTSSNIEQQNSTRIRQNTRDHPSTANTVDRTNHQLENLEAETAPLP

Structure (SMILES): CN1c2ccccc2C(NCCCCCCC(=O)O)c2cc(F)c(I)cc2S1(=O)=O.Cl (centres unmarked) [Compound 9k, 7-((2-fluoro-3-iodo-6-methyl-5,5-dioxido-6,11-dihydrodibenzo [c,f][1,2]thiazepin-11-yl)amino) heptanoic acid hydrochloride salt]
- solubility at 2 h ([1]; distilled water, thermodynamic from solid, neutral water, 20° C., Method B (2 h orbital shaker), read-out: Aqueous Solubility (mg/mL @ 20° C.)): 5.7 mg/mL
- Solubility relative to monohalo counterpart iodotianeptine ([1]; neutral unbuffered water): 2-3 fold
- solubility (physchem; pH 1, simulated gastric fluid): 2700 µg/mL
- solubility (physchem; pH 7, aqueous buffer): 390 µg/mL
- ED50 (male C57BL/6 mice; Mus musculus, sc, hot plate 55° C., male C57BL/6 mice, tested at 15 post-injection): 1.7 mg/kg
- Analgesic activity in the mouse hot plate assay (male C57BL/6 mice; much higher potency than tianeptine): potent analgesics
- EC50 [2]: 4.6 nM
- MOR potency relative to analogs lacking substitution at position 2 ([2]; dihalo-substituted core): equipotent or more potent

From patent US11787772B2, “Carboxylic diarythiazepineamines as mixed mu- and delta-opioid receptor agonists” (THE TRUSTEES OF COLUMBIA UNIVERSITY IN THE CITY OF NEW YORK, priority 2017, dated 2023)
